Experimental data published in PubChem BioAssay (NCI).
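1) Cells in 96-well plates. 2) Compound, 48 h, 5 concentrations. 3) Linear interpolation between surrounding doses. 4) Unreached endpoint = highest concentration. TGI: total growth inhibition.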

Tests used:
Assay in all cases: NCI-60 cell line screen, 48 h
[1] = system: 786-0 renal
[2] = system: A498 renal
[3] = system: A549 NSCLC
[4] = system: ACHN renal
[5] = system: CAKI-1 renal
[6] = system: CCRF-CEM leukemia
[7] = system: COLO 205 colon
[8] = system: DLD-1 colon
[9] = system: DMS 114 small cell lung
[10] = system: DMS 273 small cell lung
[11] = system: EKVX NSCLC
[12] = system: HCC-2998 colon
[13] = system: HCT-116 colon
[14] = system: HCT-15 colon
[15] = system: HL-60(TB) leukemia
[16] = system: HOP-18 NSCLC
[17] = system: HOP-62 NSCLC
[18] = system: HOP-92 NSCLC
[19] = system: HT29 colon
[20] = system: IGROV1 ovarian
[21] = system: K-562 leukemia
[22] = system: KM12 colon
[23] = system: LOX IMVI melanoma
[24] = system: M14 melanoma
[25] = system: M19-MEL melanoma
[26] = system: MALME-3M melanoma
[27] = system: MOLT-4 leukemia
[28] = system: NCI-H226 lung
[29] = system: NCI-H23 lung
[30] = system: NCI-H460 lung
[31] = system: OVCAR-3 ovarian
[32] = system: OVCAR-4 ovarian
[33] = system: OVCAR-5 ovarian
[34] = system: OVCAR-8 ovarian
[35] = system: RXF 393 renal
[36] = system: SF-268 CNS
[37] = system: SF-295 CNS
[38] = system: SF-539 CNS
[39] = system: SK-MEL-2 melanoma
[40] = system: SK-MEL-28 melanoma
[41] = system: SK-MEL-5 melanoma
[42] = system: SK-OV-3 ovarian
[43] = system: SN12C renal
[44] = system: SNB-19 CNS
[45] = system: SNB-75 CNS
[46] = system: SNB-78 CNS
[47] = system: SW-620 colon
[48] = system: TK-10 renal
[49] = system: U251 CNS
[50] = system: UACC-257 melanoma
[51] = system: UACC-62 melanoma
[52] = system: UO-31 renal
[53] = system: BT-549 breast
[54] = system: DU-145 prostate
[55] = system: HS 578T breast
[56] = system: MCF7 breast
[57] = system: MDA-MB-231 breast
[58] = system: MDA-MB-435
[59] = system: MDA-N
[60] = system: NCI-H522 lung
[61] = system: NCI/ADR-RES ovarian
[62] = system: PC-3 prostate
[63] = system: RPMI-8226 leukemia
[64] = system: SR leukemia
[65] = system: T-47D breast
[66] = system: KM20L2 colon
[67] = system: LXFL 529 NSCLC

Cc1ccc(NS(=O)(=O)c2cc(C(C)(C)C)ccc2OCCOCCOCCOc2ccc(C(C)(C)C)cc2S(=O)(=O)Nc2ccc(C)cc2)cc1
TGI [1]: > 100 µM
TGI [2]: > 100 µM
TGI [3]: > 100 µM
TGI [4]: > 100 µM
TGI [5]: > 100 µM
TGI [6]: > 100 µM
TGI [7]: > 100 µM
TGI [8]: > 100 µM
TGI [9]: > 100 µM
TGI [10]: > 100 µM
TGI [11]: > 100 µM
TGI [12]: > 100 µM
TGI [13]: > 100 µM
TGI [14]: > 100 µM
TGI [15]: > 100 µM
TGI [16]: > 100 µM
TGI [17]: > 100 µM
TGI [18]: > 100 µM
TGI [19]: > 100 µM
TGI [20]: > 100 µM
TGI [21]: > 100 µM
TGI [22]: > 100 µM
TGI [23]: > 100 µM
TGI [24]: > 100 µM
TGI [25]: > 100 µM
TGI [26]: > 100 µM
TGI [27]: > 100 µM
TGI [28]: > 100 µM
TGI [29]: > 100 µM
TGI [30]: > 100 µM
TGI [31]: > 100 µM
TGI [32]: > 100 µM
TGI [33]: > 100 µM
TGI [34]: > 100 µM
TGI [35]: > 100 µM
TGI [36]: > 100 µM
TGI [37]: > 100 µM
TGI [38]: > 100 µM
TGI [39]: > 100 µM
TGI [40]: > 100 µM
TGI [41]: > 100 µM
TGI [42]: > 100 µM
TGI [43]: > 100 µM
TGI [44]: > 100 µM
TGI [45]: > 100 µM
TGI [46]: > 100 µM
TGI [47]: > 100 µM
TGI [48]: > 100 µM
TGI [49]: > 100 µM
TGI [50]: > 100 µM
TGI [51]: > 100 µM
TGI [52]: > 100 µM

Cc1cc(=O)oc2cc(OC(=O)Nc3ccc(Cl)c(Cl)c3)ccc12
TGI [1]: > 100 µM
TGI [2]: 32.6 µM
TGI [3]: 82.1 µM
TGI [4]: 78.1 µM
TGI [53]: 61.5 µM
TGI [5]: 86.4 µM
TGI [6]: 51.6 µM
TGI [7]: 96.5 µM
TGI [54]: 90.5 µM
TGI [11]: 85.2 µM
TGI [12]: 41 µM
TGI [13]: 40.7 µM
TGI [14]: > 100 µM
TGI [15]: 41.9 µM
TGI [17]: 63.2 µM
TGI [18]: 43.4 µM
TGI [55]: 66.4 µM
TGI [19]: 75.4 µM
TGI [20]: 60.5 µM
TGI [21]: 28.2 µM
TGI [22]: 84 µM
TGI [23]: 37.2 µM
TGI [24]: 50.9 µM
TGI [26]: 51.8 µM
TGI [56]: > 100 µM
TGI [57]: 58 µM
TGI [58]: 41.2 µM
TGI [59]: 54.7 µM
TGI [27]: 44.4 µM
TGI [28]: 46.6 µM
TGI [29]: 53 µM
TGI [30]: 89.6 µM
TGI [60]: 54.4 µM
TGI [61]: > 100 µM
TGI [31]: 50.2 µM
TGI [32]: > 100 µM
TGI [33]: 61.9 µM
TGI [34]: 54.8 µM
TGI [62]: 68.2 µM
TGI [63]: 36.2 µM
TGI [35]: 52.3 µM
TGI [36]: > 100 µM
TGI [37]: 74.4 µM
TGI [38]: 38.5 µM
TGI [39]: 56.1 µM
TGI [40]: 67.3 µM
TGI [41]: 29.7 µM
TGI [42]: 88.4 µM
TGI [43]: 70.9 µM
TGI [44]: 77.2 µM
TGI [45]: 67.3 µM
TGI [64]: 46.3 µM
TGI [47]: 48.1 µM
TGI [65]: 68.3 µM
TGI [48]: > 100 µM
TGI [49]: 56.8 µM
TGI [50]: 84.2 µM
TGI [51]: 35.1 µM
TGI [52]: 72.7 µM

Nc1nc2c(ncn2CCOC(c2ccccc2)P(=O)(O)O)c(=O)[nH]1 (configuration not stated)
TGI [1]: > 100 µM
TGI [2]: > 100 µM
TGI [3]: > 100 µM
TGI [4]: > 100 µM
TGI [5]: > 100 µM
TGI [7]: > 100 µM
TGI [8]: > 100 µM
TGI [10]: > 100 µM
TGI [11]: > 100 µM
TGI [12]: > 100 µM
TGI [13]: > 100 µM
TGI [14]: > 100 µM
TGI [15]: > 100 µM
TGI [19]: > 100 µM
TGI [20]: > 100 µM
TGI [22]: > 100 µM
TGI [66]: > 100 µM
TGI [23]: > 100 µM
TGI [67]: > 100 µM
TGI [26]: > 100 µM
TGI [28]: > 100 µM
TGI [29]: > 100 µM
TGI [30]: > 100 µM
TGI [60]: > 100 µM
TGI [31]: > 100 µM
TGI [33]: > 100 µM
TGI [34]: > 100 µM
TGI [35]: > 100 µM
TGI [36]: > 100 µM
TGI [37]: > 100 µM
TGI [38]: > 100 µM
TGI [39]: > 100 µM
TGI [40]: > 100 µM
TGI [41]: > 100 µM
TGI [42]: > 100 µM
TGI [43]: > 100 µM
TGI [44]: > 100 µM
TGI [45]: > 100 µM
TGI [46]: > 100 µM
TGI [64]: > 100 µM
TGI [47]: > 100 µM
TGI [48]: > 100 µM
TGI [49]: > 100 µM
TGI [50]: > 100 µM
TGI [51]: > 100 µM
TGI [52]: > 100 µM
